What was measured:
[1] = biological target: T1, serotonin 5-HT1A receptor (Rattus norvegicus, UniProt P19327); settings: standard for anxiolytic activity; cited from earlier work
T1 construct: following the procedure of Hall et al., J. Neurochem; 44, 1685 (1985); from tissue
T1 sequence (P19327 1-422): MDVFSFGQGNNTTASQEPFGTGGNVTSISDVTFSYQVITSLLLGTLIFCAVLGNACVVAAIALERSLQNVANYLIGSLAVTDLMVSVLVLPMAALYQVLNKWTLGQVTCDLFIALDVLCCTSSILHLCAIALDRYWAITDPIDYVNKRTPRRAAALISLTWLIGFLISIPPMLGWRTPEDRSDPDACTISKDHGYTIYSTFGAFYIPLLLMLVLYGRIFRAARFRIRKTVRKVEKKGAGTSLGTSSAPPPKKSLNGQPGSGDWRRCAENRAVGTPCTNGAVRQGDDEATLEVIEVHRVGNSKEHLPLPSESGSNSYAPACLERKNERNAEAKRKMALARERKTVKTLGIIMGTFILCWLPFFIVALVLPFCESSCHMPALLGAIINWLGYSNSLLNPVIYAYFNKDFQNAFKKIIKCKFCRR

[2] = conditioned avoidance, Discrete Trial (lever press); assay type: in vivo, rat (male CD); settings: Rattus norvegicus, read-out: Avoidance Block AB50, Discrete Trial
Excerpt: (§1) The antipsychotic properties of the compound of Example 5 were further established by standard pharmacologically accepted procedures involving conditioned avoidance studies in which trained male CD rats (Charles River), 400-500 g. body weight are exposed to a fifteen second warning tone (conditioned stimulus) continued for an additional fifteen seconds accompanied by electric shock. The rat can avoid the electric shock by jumping to an exposed shelf (shelf-jump response). A response during the initial warning tone is considered an avoidance response, while a response during shock delivery is considered an escape response. The shelf-jump response test procedure follows that of Herman et. al., Comm. in Psychopharm., 3, pp. 165-171 (1979). A similar test procedure (Discrete Trial) in which a lever press was substituted for a shelf-jump was also used to establish the activity of the compound of Example 5. The compound was tested over a full dose range and the Avoidance Block activities reported as "AB50 's (mg/kg): Shelf-jump: 6.43 (no CI) i.p., 58.28 (no CI) p.o.; Discrete Trial: 4.80 (2.14-17.66) i.p., 35.35 (no CI) p.o.

[3] = biological target: T2, dopamine D-2 receptor (Rattus norvegicus, UniProt P61169); experiment: dopamine D-2 receptor binding (displacement of 3H-spiroperidol, homogenized limbic brain tissue)
T2 construct: from tissue; host or cells: limbic brain tissue, homogenized
Description: High affinity for the dopamine D-2 receptor was established by the standard experimental test procedure of Fields, et al., Brain Res., 136, 578-584 (1977) and Yamamura et al., eds., Neurotransmitter Receptor Binding, Raven Press, N.Y. (1978) wherein homogenized limbic brain tissue is incubated with ^3 H-spiroperiodol and various concentrations of test compound, filtered and washed and shaken with Hydrofluor scintillation cocktail (National Diagnostics) and counted in a Packard 460 CD scintillation counter.

[4] = biological target: T1, serotonin 5-HT1A receptor; experiment: serotonin 5-HT1A receptor binding (displacement of [3H]8-OHDPAT)
Excerpt: High affinity for the serotonin 5-HT1A receptor was established by testing the claimed compound's ability to displace [^3 H]8-OHDPAT (dipropylaminotetralin) from the 5-HT1A serotonin receptor following the procedure of Hall et al., J. Neurochem. 44, 1685 (1985). […] The anxiolytic activity of buspirone is believed to be, at least partially, due to its 5-HT1A receptor affinity (Vander Maelen et al., Eur. J. Pharmacol., 129 (1-2) 123-130 (1986).

[5] = conditioned avoidance, shelf-jump response test; assay type: in vivo, rat (male CD); settings: Rattus norvegicus, no CI, read-out: Avoidance Block AB50, Shelf-jump
Excerpt: as §1

T2 sequence (P61169 whole entry): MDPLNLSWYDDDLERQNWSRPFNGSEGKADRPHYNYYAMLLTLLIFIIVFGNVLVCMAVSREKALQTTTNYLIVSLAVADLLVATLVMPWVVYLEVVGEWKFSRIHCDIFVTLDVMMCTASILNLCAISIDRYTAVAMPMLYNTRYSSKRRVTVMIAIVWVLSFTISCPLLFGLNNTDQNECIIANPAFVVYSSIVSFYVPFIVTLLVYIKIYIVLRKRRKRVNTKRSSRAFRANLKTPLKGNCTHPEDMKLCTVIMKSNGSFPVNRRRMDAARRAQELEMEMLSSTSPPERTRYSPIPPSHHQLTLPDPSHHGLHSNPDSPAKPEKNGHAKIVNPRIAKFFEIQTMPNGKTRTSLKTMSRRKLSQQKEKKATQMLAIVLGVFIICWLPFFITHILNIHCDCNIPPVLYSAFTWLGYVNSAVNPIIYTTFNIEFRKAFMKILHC

inhibition at 1 µM [3] [%] | Ki [4] [nM] | inhibition at 1 µM [4] [%] | SMILES | other results
 |  |  | O=C1CC2(CCCC2)CC(=O)N1CCCCN1CCN(c2ncccn2)CC1 [buspirone] | affinity for the 5-HT1A serotonin receptor subtype (in words) [1]: high affinity
95 | 0.065 | 96 | O=C1C2CC(C(=O)N1CCCCN1CCN(c3nsc4ccccc34)CC1)C1C2C2C3CC4C2C4C31 (stereo not shown) [Example 5, Decahydro-3-[4-[4-(1,2-benzisothiazol-3-yl)-1-piperazinyl]butyl]-1,5-methano-6,7,9-metheno-2H-pentaleno[1,2-d]azepine-2,4(3H)-dione] | ED50 ([2]; ip, CI in parentheses): 4.8 mg/kg; ED50 ([2]; po, no CI): 35.4 mg/kg; Ki [3]: 0.5 nM; ED50 ([5]; ip): 6.43 mg/kg; ED50 ([5]; po): 58.3 mg/kg
99 |  | 100 | O=C1C2C3C=CC(C4CC34)C2C(=O)N1CCCCN1CCN(c2nsc3ccccc23)CC1 (stereo not shown) [Example 3, 2-[4-[4-(1,2-Benzisothiazol-3-yl)-1-piperazinyl]butyl]-4,4a,5,5a,6,6a-hexahydro-4,6-ethenocycloprop[f]isoindole-1,3(2H,3aH)-dione] | 
100 |  | 100 | O=C1C2C(C(=O)N1CCCCN1CCN(c3nsc4ccccc34)CC1)C1C3CC4C(C32)C41 (stereo not drawn) [Example 6, (Exo)-octahydro-2-[4-[4-(1,2-benzisothiazol-3-yl)-1-piperazinyl]butyl]-4,5,7-metheno-1H-pentaleno[1,2-c]pyrrole-1,3(1H)-dione] | 
 | 0.4 |  | O=C1C2C(C(=O)N1CCCCN1CCN(c3nsc4ccccc34)CC1)C1C3CC4C(C32)C41 (stereo not drawn) [Example 7, (Endo)-octahydro-2-[4-[4-(1,2-benzisothiazol-3-yl)-1-piperazinyl]butyl]-4,5,7-metheno-1H-pentaleno[1,2-c]pyrrole-1,3(2H)-dione] | D-2 Binding (Inhibition at 1 μM) ([3]; at 1 μM): 100%; 5-HT1A Binding (Inhibition at 1 μM) ([4]; at 1 μM): 100%
95 | 0.65 | 97 | O=C1C2C3C=CC(C4C=CC43)C2C(=O)N1CCCCN1CCN(c2nsc3ccccc23)CC1 (stereo not shown) [Example 4, 2-[4-[4-(1,2-Benzisothiazol-3-yl)-1-piperazinyl]butyl]3a,4,4a,6a,7,7a-hexahydro-4,7-etheno-1H-cyclobut[f]isoindole-1,3(2H)-dione] | 

Reference: US4968792A, “Psychotropic benzisothiazole derivatives” (American Home Products Corporation, priority 1989, dated 1990)
